Measurements from PubChem BioAssay AID248 (DTP/NCI, 2004).
Toxic doses and inconclusive results are not listed. Cut-off read from the data, not from the text of the source: active = T/C of 150% or more; inactive = T/C below 125%.

System: L1210 leukemia ip in BDF1 mice, survival T/C
Test: NCI In Vivo Anticancer Drug Screen. Data for tumor model L1210 Leukemia (intraperitoneal) in B6D2F1 (BDF1) mice
Settings: endpoint: mean survival time, higher = longer survival
Summary of the method: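 Antitumor effect is assessed in tumor-bearing animals. Survival in the compound arm is compared with a vehicle-dosed control arm and expressed as their quotient.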

[1] = dose: 100.0 mg/kg/injection, schedule: Q04DX003 (ip), vehicle: saline with Tween-80
[2] = dose: 200.0 mg/kg/injection, schedule: Q04DX003 (ip), vehicle: saline with Tween-80
[3] = dose: 400.0 mg/kg/injection, schedule: Q04DX003 (ip), vehicle: saline with Tween-80
[4] = dose: 100.0 mg/kg/injection, schedule: Q04DX003 (ip), vehicle: Klucel (hydroxypropylcellulose) (HPC)
[5] = dose: 200.0 mg/kg/injection, schedule: Q04DX003 (ip), vehicle: Klucel (hydroxypropylcellulose) (HPC)
[6] = dose: 400.0 mg/kg/injection, schedule: Q04DX003 (ip), vehicle: Klucel (hydroxypropylcellulose) (HPC)
[7] = dose: 100.0 mg/kg/injection, schedule: Q01DX009 (ip), vehicle: saline
[8] = dose: 100.0 mg/kg/injection, schedule: Q04DX003 (ip), vehicle: saline
[9] = dose: 200.0 mg/kg/injection, schedule: Q01DX009 (ip), vehicle: saline
[10] = dose: 200.0 mg/kg/injection, schedule: Q04DX003 (ip), vehicle: saline
[11] = dose: 100.0 mg/kg/injection, schedule: Q01DX001 (ip), vehicle: Klucel (hydroxypropylcellulose) (HPC)
[12] = dose: 200.0 mg/kg/injection, schedule: Q01DX001 (ip), vehicle: Klucel (hydroxypropylcellulose) (HPC)
[13] = dose: 400.0 mg/kg/injection, schedule: Q01DX001 (ip), vehicle: Klucel (hydroxypropylcellulose) (HPC)
[14] = dose: 100.0 mg/kg/injection, schedule: Q01DX001 (ip), vehicle: saline
[15] = dose: 200.0 mg/kg/injection, schedule: Q01DX001 (ip), vehicle: saline
[16] = dose: 400.0 mg/kg/injection, schedule: Q01DX001 (ip), vehicle: saline
[17] = dose: 100.0 mg/kg/injection, schedule: Q04DX002 (ip), vehicle: Klucel (hydroxypropylcellulose) (HPC)
[18] = dose: 200.0 mg/kg/injection, schedule: Q04DX002 (ip), vehicle: Klucel (hydroxypropylcellulose) (HPC)
[19] = dose: 400.0 mg/kg/injection, schedule: Q04DX002 (ip), vehicle: Klucel (hydroxypropylcellulose) (HPC)
[20] = dose: 50.0 mg/kg/injection, schedule: Q01DX009 (ip), vehicle: saline
[21] = dose: 100.0 mg/kg/injection, schedule: Q01DX009 (ip), vehicle: Klucel (hydroxypropylcellulose) (HPC)
[22] = dose: 200.0 mg/kg/injection, schedule: Q01DX009 (ip), vehicle: Klucel (hydroxypropylcellulose) (HPC)
[23] = dose: 400.0 mg/kg/injection, schedule: Q01DX009 (ip), vehicle: Klucel (hydroxypropylcellulose) (HPC)
[24] = dose: 100.0 mg/kg/injection, schedule: Q01DX009 (ip), vehicle: saline with Tween-80
[25] = dose: 200.0 mg/kg/injection, schedule: Q01DX009 (ip), vehicle: saline with Tween-80
[26] = dose: 400.0 mg/kg/injection, schedule: Q01DX009 (ip), vehicle: saline with Tween-80
[27] = dose: 12.5 mg/kg/injection, schedule: Q01DX009 (ip), vehicle: Klucel (hydroxypropylcellulose) (HPC)
[28] = dose: 25.0 mg/kg/injection, schedule: Q01DX009 (ip), vehicle: Klucel (hydroxypropylcellulose) (HPC)
[29] = dose: 50.0 mg/kg/injection, schedule: Q01DX009 (ip), vehicle: Klucel (hydroxypropylcellulose) (HPC)

Measured: T/C

COc1cc([N+](=O)[O-])ccc1N
inactive: dose: 100.0 mg/kg/injection, schedule: Q01DX009 (ip), vehicle: saline sonified 116 % of control | [1] 105 % of control | dose: 200.0 mg/kg/injection, schedule: Q01DX009 (ip), vehicle: saline sonified 95 % of control | [2] 105 % of control | dose: 400.0 mg/kg/injection, schedule: Q01DX009 (ip), vehicle: saline sonified 104 % of control | [3] 115 % of control

O=C(OCc1ccccc1CN1CCCC1)c1ccc([N+](=O)[O-])cc1Cl
inactive: dose: 100.0 mg/kg/injection, schedule: Q04DX002 (ip), vehicle: saline 107 % of control | dose: 200.0 mg/kg/injection, schedule: Q04DX002 (ip), vehicle: saline 96 % of control

CCOC(=O)/C=C/c1ccc([N+](=O)[O-])cc1
inactive: [4] 95 % of control | [5] 102 % of control | [6] 98 % of control

C[CH2][Sn]([I])([CH2]C)[CH2]C
inactive: dose: 1.56 mg/kg/injection, schedule: Q01DX009 (ip), vehicle: saline 92 % of control | dose: 3.13 mg/kg/injection, schedule: Q01DX009 (ip), vehicle: saline 94 % of control | dose: 6.25 mg/kg/injection, schedule: Q01DX009 (ip), vehicle: saline 89 % of control | dose: 25.0 mg/kg/injection, schedule: Q04DX002 (ip), vehicle: gum acacia 87 % of control

COC(=O)C(=NO)C(=O)OC
inactive: [7] 98 % of control | [8] 93 % of control | [9] 106 % of control | [10] 95 % of control | dose: 400.0 mg/kg/injection, schedule: Q01DX009 (ip), vehicle: saline 106 % of control | dose: 400.0 mg/kg/injection, schedule: Q04DX003 (ip), vehicle: saline 96 % of control

CSc1ncc(CO)c(NCc2ccco2)n1
inactive: [11] 98 % of control | [12] 98 % of control | [13] 98 % of control

Cn1c(=O)[nH]c(=O)c2[nH]c(CO)nc21
inactive: dose: 100.0 mg/kg/injection, schedule: Q01DX001 (ip), vehicle: carboxymethylcellulose (CMC) 100 % of control | dose: 200.0 mg/kg/injection, schedule: Q01DX001 (ip), vehicle: carboxymethylcellulose (CMC) 102 % of control

OCC1OC(n2c(Cl)nc3ccccc32)C(O)C1O (configuration not stated)
inactive: [14] 97 % of control | [15] 103 % of control | [16] 103 % of control

Cc1c2c(n(C)c1C(=O)N1CCCCC1)CCCC2=O
inactive: dose: 75.0 mg/kg/injection, schedule: Q01DX001 (ip), vehicle: carboxymethylcellulose (CMC) 103 % of control | dose: 150.0 mg/kg/injection, schedule: Q01DX001 (ip), vehicle: carboxymethylcellulose (CMC) 101 % of control | dose: 300.0 mg/kg/injection, schedule: Q01DX001 (ip), vehicle: carboxymethylcellulose (CMC) 98 % of control

O=C(Nc1ccc(Cl)c(Cl)c1)OCc1cc[n+]([O-])cc1
inactive: [17] 103 % of control | [18] 98 % of control | [19] 106 % of control

CCCOC(CN)C(Cl)(Cl)Cl (configuration not stated)
inactive: [20] 98 % of control | [7] 96 % of control | [8] 97 % of control | [9] 96 % of control | [10] 92 % of control

Cc1cc(Cl)nc2ccc(Cc3ccc(Br)cc3)cc12
inactive: [14] 95 % of control | [15] 96 % of control | [16] 91 % of control

CC1(C)CCc2cc(C(=O)O)ccc2O1
inactive: dose: 50.0 mg/kg/injection, schedule: Q01DX001 (ip), vehicle: saline 100 % of control | [14] 100 % of control | [15] 103 % of control | [16] 100 % of control

CS(=O)(=O)Nc1ccc(C(=O)O)cc1
inactive: [21] 97 % of control | [4] 100 % of control | [22] 98 % of control | [5] 107 % of control | [23] 98 % of control | [6] 105 % of control

CCC(C)C(C(=O)O)c1ccccc1 (configuration not stated)
inactive: [1] 100 % of control | [2] 98 % of control | [3] 94 % of control

CC(c1ccccc1)n1cncc1C(=O)N(C)C (configuration not stated)
inactive: [20] 96 % of control | [7] 101 % of control | [8] 97 % of control | [9] 97 % of control | [10] 93 % of control

Cn1nc(N)c2ncc(-c3ccc(Cl)cc3)nc21
inactive: [24] 93 % of control | [25] 96 % of control | [26] 87 % of control

CC(=O)Nc1ncc(CCC2OCCO2)c(=O)[nH]1
inactive: [11] 95 % of control | [12] 97 % of control | [13] 98 % of control

COc1cc(N(CCO)CCO)ccc1NC(=O)c1ccccc1
inactive: dose: 12.5 mg/kg/injection, schedule: Q01DX001 (ip), vehicle: carboxymethylcellulose (CMC) 93 % of control | [27] 104 % of control | dose: 12.5 mg/kg/injection, schedule: Q04DX003 (ip), vehicle: Klucel (hydroxypropylcellulose) (HPC) 97 % of control | dose: 25.0 mg/kg/injection, schedule: Q01DX001 (ip), vehicle: carboxymethylcellulose (CMC) 98 % of control | [28] 104 % of control | dose: 25.0 mg/kg/injection, schedule: Q04DX003 (ip), vehicle: Klucel (hydroxypropylcellulose) (HPC) 95 % of control | [29] 97 % of control | dose: 50.0 mg/kg/injection, schedule: Q04DX003 (ip), vehicle: Klucel (hydroxypropylcellulose) (HPC) 97 % of control

NC(Cc1nn[nH]n1)C(=O)O (configuration not stated)
inactive: dose: 100.0 mg/kg/injection, schedule: Q01DX009 (ip), vehicle: water 102 % of control | dose: 100.0 mg/kg/injection, schedule: Q04DX003 (ip), vehicle: water 96 % of control | dose: 200.0 mg/kg/injection, schedule: Q01DX009 (ip), vehicle: water 102 % of control | dose: 200.0 mg/kg/injection, schedule: Q04DX003 (ip), vehicle: water 94 % of control | dose: 400.0 mg/kg/injection, schedule: Q01DX009 (ip), vehicle: water 98 % of control | dose: 400.0 mg/kg/injection, schedule: Q04DX003 (ip), vehicle: water 88 % of control

O=C(NC(O)C(Cl)(Cl)Cl)c1ccccc1O (configuration not stated)
inactive: [24] 95 % of control | [1] 93 % of control | [25] 103 % of control | [2] 95 % of control | [3] 95 % of control

COc1cc([N+](=O)[O-])ccc1NC(=O)c1c(Br)c(Br)c(Br)c(Br)c1C(=O)O
inactive: [21] 101 % of control | [22] 106 % of control | [23] 106 % of control

O=C1C=C(C23CC4CC(CC(C4)C2)C3)N2CCCc3cccc(c32)N1
inactive: [17] 97 % of control | [18] 105 % of control | [19] 97 % of control

CCCCCCCCCCCC#N
inactive: [24] 107 % of control | [25] 96 % of control | [26] 90 % of control

Oc1ccc(CCNCc2ccc3c(c2)OCO3)cc1
inactive: [11] 88 % of control | [12] 88 % of control | [13] 88 % of control

CCOC(=O)c1nc2c(C)nc(N(C)C)nc2n(C)c1=O
inactive: [11] 100 % of control | [12] 97 % of control | [13] 94 % of control

O=C1CCC(=O)N1c1ccc(Cl)cc1
inactive: [27] 107 % of control | [28] 98 % of control | [29] 101 % of control

COc1ccccc1OC(=O)Nc1ccc(C)c([N+](=O)[O-])c1
inactive: dose: 25.0 mg/kg/injection, schedule: Q01DX009 (ip), vehicle: saline with Tween-80 95 % of control | dose: 50.0 mg/kg/injection, schedule: Q01DX009 (ip), vehicle: saline with Tween-80 118 % of control | [24] 92 % of control
